According to patent US7045532B2 (Millennium Pharmaceuticals, Inc., priority 1999, dated 2006):

What was measured:
[1] = 34-day oral dosing in BBZDR rats (obesity and Type II diabetes model): body weight and metabolic parameters; format: in vivo; conditions: for Adipose Mass / Adipose Mass, percent of placebo response / Core Temperature / Core Temperature, percent of placebo response / Food Consumption / Food Consumption, percent of placebo response / Incidence of Glycosuria (Days) / Incidence of Glycosuria (Days), incidence rate / Psoas Mass / Psoas Mass, percent of placebo response / Water Consumption / Water Consumption, percent of placebo response / Incidence of Diabetes: 34 days; for Incidence of Diabetes: animals
Source text: The effects of Compound HE on body weight and metabolism were studied further in the BBZDR rat, a genetic model of obesity and Type II diabetes (Biomedical Research Models, Inc, Worcester, Mass.). BBZDR rats are a cross between the BBDR/W or strain and the fa/fa rat. In BBZDR rats, diabetes occurs in 98% of obese males at an average age of onset of 68±2 days. […] The pancreatic islets of the young obese diabetic males are profoundly enlarged with β cell hyperplasia and mild fibrosis. Studies of pancreatic sections immunostained for insulin and the GLUT-2 glucose transporter reveal focal reduction in β cell insulin content and a generalized reduction in GLUT-2 staining of β cell surface membranes. Lymphocytic insulitis is not detected in either lean or obese rats. In the absence of lymphopenia and autoimmunity, the lean BBZDR rats never become diabetic, and their pancreatic islets are normal in all respects.
Compound HE was administered to male BBZDR rats (48–60 days of age) via oral gavage for a period of 34 days. There were three treatment groups, each with 6 rats/group: a) placebo (1% carboxy methyl cellulose [CMC]), b) Compound HE at 100 mg/kg/day in 1% CMC, and c) Compound HE at 300 mg/kg/day in 1% CMC. The rats were gavaged twice daily for the entire period of the study. Body weight, food intake, fluid intake, and core body temperature were monitored on a daily basis. In addition, the rats were observed twice daily for any gross behavioral/phenotypic changes. Early in the study, two animals in the 300 mg/kg/day-dose group died from trauma secondary to oral gavage (confirmed during necropsy) and were excluded from all analyses.
On Day 21, after an overnight fast, whole blood, serum and plasma samples were collected from anesthetized animals. Prior to the termination of the study, tissue and plasma samples were collected from overnight-fasted animals for histological and biochemical analyses.

ACE-2 = ACE-2 (Rattus norvegicus, UniProt Q5EGZ1); test: ACE-2 Competitive Substrate Assay, rat ACE-2; format: biochemical; conditions: Ki class; compounds tested in 5% DMSO, 12 compound concentrations
Sequence of ACE-2 (Q5EGZ1 18-805): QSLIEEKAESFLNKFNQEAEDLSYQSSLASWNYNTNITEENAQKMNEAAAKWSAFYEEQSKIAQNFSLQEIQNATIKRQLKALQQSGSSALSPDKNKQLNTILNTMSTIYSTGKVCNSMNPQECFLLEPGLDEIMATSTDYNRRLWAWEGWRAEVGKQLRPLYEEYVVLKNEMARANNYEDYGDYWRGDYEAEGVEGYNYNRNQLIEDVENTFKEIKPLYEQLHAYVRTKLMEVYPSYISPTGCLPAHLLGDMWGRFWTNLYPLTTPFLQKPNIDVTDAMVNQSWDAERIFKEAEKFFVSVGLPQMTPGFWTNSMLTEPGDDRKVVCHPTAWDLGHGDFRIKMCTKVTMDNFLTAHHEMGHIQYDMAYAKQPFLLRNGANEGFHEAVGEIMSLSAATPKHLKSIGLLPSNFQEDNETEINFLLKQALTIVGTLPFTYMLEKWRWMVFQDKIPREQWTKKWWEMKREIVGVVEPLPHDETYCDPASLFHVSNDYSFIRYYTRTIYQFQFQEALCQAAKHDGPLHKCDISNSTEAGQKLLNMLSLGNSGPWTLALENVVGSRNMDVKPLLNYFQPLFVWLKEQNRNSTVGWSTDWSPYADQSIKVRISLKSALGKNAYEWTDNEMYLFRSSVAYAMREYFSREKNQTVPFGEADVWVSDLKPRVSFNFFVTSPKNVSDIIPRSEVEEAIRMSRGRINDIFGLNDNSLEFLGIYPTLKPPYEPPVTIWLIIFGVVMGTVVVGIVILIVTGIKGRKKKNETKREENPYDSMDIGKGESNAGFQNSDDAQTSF

Compound: CC(C)CC(N[C@@H](Cc1cncn1Cc1cc(Cl)cc(Cl)c1)C(=O)O)C(=O)O (single isomer, unassigned) [HE, 2-[1-Carboxy-2-[3-(3,5-dichloro-benzyl)-3H-imidazol-4-yl]-ethylamino)4-methyl-pentanoic acid]
- fluid intake, less than placebo ([1]; 100 mg-treated group): 5%
- food intake, less than placebo ([1]; 100 mg-treated group): 5%
- Fasted Glucose, Day 34, percent of placebo response ([1]; 100 mg/kg/day oral gavage): (100%)
- Fasted Insulin, Day 34 ([1]; 100 mg/kg/day oral gavage): 8.4 ± 7.0 ng/mL
- Fasted Insulin, Day 34, percent of placebo response ([1]; 100 mg/kg/day oral gavage): (62%)^a
- Fasted Leptin, Day 34 ([1]; 100 mg/kg/day oral gavage): 99 ± 22 ng/mL
- Fasted Leptin, Day 34, percent of placebo response ([1]; 100 mg/kg/day oral gavage): (102.7%)
- Fasted Total Cholest., Day 34 ([1]; 100 mg/kg/day oral gavage): 117 ± 9 mg/dL
- Fasted Total Cholest., Day 34, percent of placebo response ([1]; 100 mg/kg/day oral gavage): (88%)
- Total Fasted Triglyc., Day 34 ([1]; 100 mg/kg/day oral gavage): 409 ± 6 mg/dL
- Total Fasted Triglyc., Day 34, percent of placebo response ([1]; 100 mg/kg/day oral gavage): (82%)
- Weight Gain thru Day 34 ([1]; 100 mg/kg/day oral gavage): 123 ± 3.4 g
- Weight Gain thru Day 34, percent of placebo response ([1]; 100 mg/kg/day oral gavage): (83.9%)
- Adipose Mass ([1]; 100 mg/kg/day oral gavage): 48.03 ± 1.86 g
- Adipose Mass, percent of placebo response ([1]; 100 mg/kg/day oral gavage): (94%)
- Core Temperature ([1]; 100 mg/kg/day oral gavage): 98.4 ± 0.13 F.
- Core Temperature, percent of placebo response ([1]; 100 mg/kg/day oral gavage): (100%)
- Food Consumption ([1]; 100 mg/kg/day oral gavage): 1283 ± 50.3 g
- Food Consumption, percent of placebo response ([1]; 100 mg/kg/day oral gavage): (94.4%)
- Incidence of Glycosuria (Days) ([1]; 100 mg/kg/day oral gavage): 31/198
- Incidence of Glycosuria (Days), incidence rate ([1]; 100 mg/kg/day oral gavage): (15.7%)
- Psoas Mass ([1]; 100 mg/kg/day oral gavage): 1.30 ± 0.09 g
- Psoas Mass, percent of placebo response ([1]; 100 mg/kg/day oral gavage): (113%)
- Water Consumption ([1]; 100 mg/kg/day oral gavage): 1388 ± 73.5 mL
- Water Consumption, percent of placebo response ([1]; 100 mg/kg/day oral gavage): (94.6%)
- Incidence of Diabetes ([1]; 100 mg/kg/day oral gavage): 2/6
- fluid intake, less than placebo ([1]; 300 mg-treated group): 15%
- food intake, less than placebo ([1]; 300 mg-treated group): 8%
- Fasted Glucose, Day 34, percent of placebo response ([1]; 300 mg/kg/day oral gavage): (94%)
- Fasted Insulin, Day 34 ([1]; 300 mg/kg/day oral gavage): 7.7 ± 4.1 ng/mL
- Fasted Insulin, Day 34, percent of placebo response ([1]; 300 mg/kg/day oral gavage): (57%)^a
- Fasted Leptin, Day 34 ([1]; 300 mg/kg/day oral gavage): 92 ± 5.3 ng/mL
- Fasted Leptin, Day 34, percent of placebo response ([1]; 300 mg/kg/day oral gavage): (76%)
- Fasted Total Cholest., Day 34 ([1]; 300 mg/kg/day oral gavage): 104 ± 5 mg/dL
- Fasted Total Cholest., Day 34, percent of placebo response ([1]; 300 mg/kg/day oral gavage): (78%)
- Total Fasted Triglyc., Day 34 ([1]; 300 mg/kg/day oral gavage): 414 ± 23 mg/dL
- Total Fasted Triglyc., Day 34, percent of placebo response ([1]; 300 mg/kg/day oral gavage): (82%)
- Weight Gain thru Day 34 ([1]; 300 mg/kg/day oral gavage): 125 ± 8.3 g
- Weight Gain thru Day 34, percent of placebo response ([1]; 300 mg/kg/day oral gavage): (82.5%)
- Adipose Mass ([1]; 300 mg/kg/day oral gavage): 48.43 ± 0.55 g
- Adipose Mass, percent of placebo response ([1]; 300 mg/kg/day oral gavage): (94%)
- Core Temperature ([1]; 300 mg/kg/day oral gavage): 98.4 ± 0.20 F.
- Core Temperature, percent of placebo response ([1]; 300 mg/kg/day oral gavage): (100%)
- Food Consumption ([1]; 300 mg/kg/day oral gavage): 1249 ± 26.8 g
- Food Consumption, percent of placebo response ([1]; 300 mg/kg/day oral gavage): (91.9%)
- Incidence of Glycosuria (Days) ([1]; 300 mg/kg/day oral gavage): 12/162
- Incidence of Glycosuria (Days), incidence rate ([1]; 300 mg/kg/day oral gavage): (7.4%)
- Psoas Mass ([1]; 300 mg/kg/day oral gavage): 1.21 ± 0.10 g
- Psoas Mass, percent of placebo response ([1]; 300 mg/kg/day oral gavage): (105%)
- Water Consumption ([1]; 300 mg/kg/day oral gavage): 1271 ± 101.7 mL
- Water Consumption, percent of placebo response ([1]; 300 mg/kg/day oral gavage): (86.7%)
- Incidence of Diabetes ([1]; 300 mg/kg/day oral gavage): 1/4
- gross or histomorphological adverse effects ([1]; 34 consecutive days of oral dosing): No gross or histomorphological adverse effects
- gross abdominal adipose and psoas muscle mass and core body temperature, change between groups ([1]; all three groups): no changes
- plasma levels of insulin, total cholesterol and triglycerides compared to placebo ([1]; both dose groups): lower
- body weight gain over the 34 days, less than placebo ([1]; both dose groups (100 and 300 mg/kg/day)): approximately 18%
- statistical significance of the changes versus placebo ([1]; oral administration for 34 days): not statistically significant
- Ki (ACE-2): < 100 nM
